From the SangsterLogP compilation come the findings set out here.

The nature of series [1]: method code SF-AS, from Frater-Schröder, M.; Alder, S.; Zbinden, G. (1976). Neurotoxic effects of pyridoxine and analogs in rats. Proc. Eur. Soc. Toxicol, 17, 277-284. As to conditions: pH 7.4.
The nature of series [2]: method code SF-RC, from DOI: 10.1182/blood.v76.11.2389.bloodjournal76112389, PMID: 2257308. As to conditions: pH 7.4.
A short description of series [3]: method code SF-AS, from DOI: 10.1007/s001289900721, PMID: 9657823.
Assay in series [4]: not given
The source holds these as a separate data set.

A short description of series [5]: method code SF-AS, from DOI: 10.1021/jm00162a004, PMID: 3023612.
Assay in series [6]: not given
The source holds these as a separate data set.

Series [7] can be described thus: method code SF-HPLC, from Blakemore, C.; Brown, H.; Durant, J.; Emmett, C.; Ganellin, R.; Parsons, E.; Rasmussen, C. (1980). SK&F 92994: a new histamine H2-receptor antagonist. COMMUNICATIONS: Part II. Br. J. Pharmacol., ….
Series [8] is described as follows: method code SF, from DOI: 10.1002/ps.2780340212. As to conditions: pH 7.0.
Series [9] can be described thus: method code SF-AS, from DOI: 10.1021/jm00299a013, PMID: 5458368.
Assay in series [10]: not given
This is another data set of the same source.

Series [11] can be described thus: method code SF-AS, from DOI: 10.1016/0006-2952(65)90227-3, PMID: 14322976. As to conditions: pH 6.8.
Series [12] can be described thus: method code SF-HPLC, from DOI: 10.1016/0378-5173(88)90220-7. The conditions noted are these: pH 7.4.
The nature of series [13]: method code SF-AS, from DOI: 10.1021/jm00069a002, PMID: 8355246. As to conditions: pH 7.4.
Series [14] in a line: method code SF-GLC, from DOI: 10.1007/bf00343116, PMID: 4026577.
The nature of series [15]: method code SF, from DOI: 10.1016/0378-5173(87)90234-1.
Series [16] can be described thus: method code SF-AS, from DOI: 10.1016/j.bmc.2007.10.035, PMID: 18029186. The conditions noted are these: pH 7.4.
The nature of series [17]: method code SF-AS, from DOI: 10.1007/bf02922495.
Assay in series [18]: not given
The source holds these as a separate data set.

Series [19] in a line: method code SF-MS, from DOI: 10.1016/j.fluid.2014.01.017. As to conditions: pH 7.6.
Assay in series [20]: not given
This is another data set of the same source.

Assay in series [21]: not given
The source holds these as a separate data set.

Assay in series [22]: not given
The source holds these as a separate data set.

A short description of series [23]: method code SF-AS, from DOI: 10.1002/jhet.5570150704.
Series [24] is described as follows: method code SF-HPLC, from DOI: 10.1248/cpb.43.1894.
The nature of series [25]: method code SF-AS, from DOI: 10.1016/j.ejmech.2003.11.003, PMID: 14987836.
A short description of series [26]: method code SF-RC, from DOI: 10.1002/ps.2780130506.
Series [27] in a line: method code SF, from DOI: 10.1002/em.2850190108, PMID: 1732104.
Series [28] in a line: method code SF-GLC, from DOI: 10.1016/0045-6535(83)90264-3.
Assay in series [29]: not given
The source holds these as a separate data set.

A short description of series [30]: method code SF-C, from DOI: 10.1021/ja00901a033.
The nature of series [31]: method code SF-RC, from PMID: 3794812.
Series [32] in a line: method code SF-AS, from DOI: 10.1021/jm00304a030, PMID: 5793164. As to conditions: pH 7.4.
Assay in series [33]: not given
The source holds these as a separate data set.

Assay in series [34]: not given
The source holds these as a separate data set.

Assay in series [35]: not given
This is another data set of the same source.

For the molecule `Cc1ncc(CO)c(C=O)c1O`, in [1], the logD (as a rule, the decadic logarithm of the distribution of all forms, ionised or not, between an organic phase and buffer at a given pH) was -0.82.

Consider `COCCn1ccc(=O)c(O)c1C`, for which the logD in series [2] was -0.52.

Turning to `NS(=O)(=O)c1nnc(-c2ccccc2Cl)s1`, the lipophilicity (logP) (commonly the decadic logarithm of the partition coefficient of the neutral form, usually between octanol and water) is 1.43.

With `O=Cc1cc(O)ccc1O`, the logP in series [3] came out at 0.54.

In turn, `Cc1c(Cl)cccc1[N+](=O)[O-]` came in with a logP in series [4] of 3.09.

Consider `CCCCC1(C)CCC=[N+]1[O-]` (configuration not stated), for which the logP in series [5] turned out to be 0.04.

For the molecule `Cc1cccc(C(=O)O)n1`, the logP in [6] was -1.22.

`CN(Cc1ccc(Br)cc1)N=O` came in with a logP in series [7] of 1.57.

Regarding `CC(C)(C)C(=O)C(Oc1ccc(Cl)cc1)n1cncn1` (configuration not stated), the logD in series [8] stood at 2.9.

In series [9], `CCCS(=O)(=O)CCn1c([N+](=O)[O-])cnc1C` had a logP of 0.23.

On to `CC(=O)c1ccccc1N`, for which the logP in [10] is 1.25.

In the case of `Cc1cccc([N+](=O)[O-])c1`, the lipophilicity (logP) in series [4] was 2.4.

`COc1ccc(N)cc1` showed a logP in series [10] of 0.98.

As for `CC(C)c1ccccc(=O)c1O`, the logD in series [11] stood at 0.96.

In the case of `Cc1ccc(NC(N)=O)cc1`, in series [8], the log distribution coefficient (logD) turned out to be 0.8.

Molecule `CNS(=O)(=O)c1ccc(C)cc1` came in with a logD in series [12] of 1.28.

The molecule `CCCCNC(=O)CCn1ccc(=O)c(O)c1C` registered a logD in series [13] of -0.1.

In series [6], `O=C(O)c1cccc(C(=O)O)n1` yielded a logP of 0.45.

As for `N#CCCCCCCC#N`, the logP in series [14] came to 0.59.

Consider `O=C(OC1CCCCC1)n1cc(F)c(=O)[nH]c1=O`, for which the pH-dependent lipophilicity (logD) in [15] (pH 4.0) stood at 1.42.

For `CC(=O)OC[C@H]1O[C@H](OCCN(C)C(=O)Cn2ccnc2[N+](=O)[O-])[C@@H](OC(C)=O)[C@@H](OC(C)=O)[C@@H]1OC(C)=O`, the logD in series [16] is -1.16.

The molecule `N#CC(C#N)=Cc1ccc(Br)o1` had a logP in series [17] of 2.28.

`Cc1ncc(CO)c(CO)c1O` had a logD in series [1] of -0.77.

The molecule `CCC(=O)n1c(=O)[nH]cc(F)c1=O` had a pH-dependent lipophilicity (logD) in [15] (pH 7.4) of -0.21.

Take `CC(C)NC(=O)c1cccnc1`: the logP in [18] was found to be 0.59.

`Cc1ncc([N+](=O)[O-])n1CCCS(C)(=O)=O`: the logP in [9] was -1.

On to `CCCCCCCC=O`, for which, in series [19], the logD is 2.53.

`CC(=O)CCCCn1c(=O)c2c(ncn2C)n(C)c1=O`: the logP in series [20] was found to be 0.29.

On to `CN(C)c1cc[n+]([O-])cc1`, for which the logP in series [21] is -0.9.

Take `CCOc1cc(Cl)c(Cl)c(Cl)c1`: the logP in series [22] stood at 4.61.

The molecule `Cc1nc(-c2ccccn2)no1` gave a logP in [23] of 0.79.

As for `COc1ccc(C(=CSC)C(=S)SC)cc1`, the logP in series [24] was 4.1.

`O=NN(CCCl)S(=O)(=O)N1CCCCC1` displayed a logP in series [25] of 1.03.

For `CSc1cccc(NC(N)=O)c1`, the lipophilicity (logP) in series [26] stood at 1.57.

In the case of `NS(=O)(=O)c1nnc(NS(=O)(=O)c2ccccc2)s1`, the logP was 0.22.

As to `CN(Cc1cccc(Br)c1)N=O`, the logP in series [7] was determined as 1.65.

In series [27], `O=[N+]([O-])c1cccc2cccc([N+](=O)[O-])c12` had a logP of 2.52.

For `CSc1nc2ccccc2s1`, the lipophilicity (logP) in series [28] is 3.15.

`CC(CS)C(=O)N1CCC[C@H]1C(=O)O` (some centres not stated) registered a logP in series [29] of 0.42.

As to `CCCC/C=C/C=O`, the logD in series [19] amounted to 2.06.

With `NS(=O)(=O)c1cc2c(cc1Cl)NC(C(Cl)Cl)NS2(=O)=O` (configuration not stated), the logP in series [29] is 0.64.

In series [14], `N#CCCCCCC#N` showed a logP of 0.05.

In the case of `O=C(O)COc1ccc(Br)cc1`, the logP in series [30] was 2.45.

Consider `Cn1cnc2c1c(=O)[nH]c(=O)n2C`, for which the logP in [20] was -0.82.

The molecule `COCC(O)Cn1c([N+](=O)[O-])nc(Br)c1Br` (configuration not stated) came in with a logP in series [31] of 1.02.

`Cc1ccc(S(=O)(=O)N(C)C(=O)c2ccccc2)cc1` came in with a logD in series [12] of 2.95.

The molecule `NC(=O)Nc1ccc(Cl)cc1` displayed a logP in series [26] of 1.8.

With `O=C(O)c1c(C(=O)O)c(C(=O)O)c(C(=O)O)c(C(=O)O)c1C(=O)O`, the logP in series [28] was -1.45.

`Cc1ccc(C=C(C#N)C#N)o1`: in series [17], the logP stood at 2.03.

Take `CCc1[nH]ccc(=O)c1O`: the logD in series [13] worked out at 0.05.

In series [32], `c1ccc2[nH]ncc2c1` displayed a pH-dependent lipophilicity (logD) of 1.82.

`COCC(O)Cn1c(Br)cnc1[N+](=O)[O-]` (configuration not stated) gave a logP in series [31] of 0.16.

`COc1ccc(OC)c(C=O)c1` gave a logP in [3] of 1.91.

In the case of `O=C(NCCO)c1cccnc1`, the lipophilicity (logP) in [18] is -0.11.

`O=[N+]([O-])c1nccn1C1OCC(I)CC1O` (configuration not stated) registered a logP in series [33] of -0.05.

`[O-][n+]1ccc(-c2ccccc2)cc1` came in with a lipophilicity (logP) in series [21] of 0.93.

In turn, `CN(CCO)C(=O)Cn1ccnc1[N+](=O)[O-]` gave a logD in series [16] of -1.25.

In the case of `O=C1Cc2ccccc2N1`, the logD in series [32] is 1.15.

On to `COc1cccc(C(=O)O)c1`, for which, in series [34], the logP worked out at 1.9.

In series [23], `CNC(=O)OCc1cccc(COC(=O)NC)n1` gave a lipophilicity (logP) of 0.24.

`CSC(=S)C1=C(SC)CCC1` returned a logP in series [24] of 3.59.

In the case of `CC(=O)c1ccccc1[N+](=O)[O-]`, the logP in series [27] was determined as 1.53.

`CC(=O)c1ccc(OCC(=O)O)cc1` yielded a logP in [30] of 1.08.

On to `O=Nc1ccc(O)c(=O)cc1`, for which, in [11], the logD was determined as 0.83.

In [35], `N#Cc1ccccc1` had a log partition coefficient (logP) of 1.5.

In series [33], `O=[N+]([O-])C1NC=CN1C1OC(CI)C(O)C1O` (configuration not stated) gave a logP of 0.7.

For the molecule `CCc1c(O)c(=O)ccn1C`, in series [2], the logD was -0.3.

The molecule `Cc1cccc(C)c1` had a logP in series [35] of 3.37.

In turn, `[O-][N+]1=CCCC12CCCC2` had a logP in [5] of -0.1.

Take `COc1cc(Cl)c(Cl)c(Cl)c1`: the log partition coefficient (logP) in series [22] was 4.1.

In series [34], `NC(=O)c1ccccc1C(N)=O` registered a log partition coefficient (logP) of 1.08.

The molecule `COC(=O)[C@@H]1CCCN1S(=O)(=O)N(CCCl)N=O` showed a logP in series [25] of -0.19.
